Molecular target: T1, h5-HT4b (Homo sapiens, UniProt Q13639)
T1 construct: expressed in transfected cells; host or cells: HEK 293 (clone 9), membrane preparation
Assay: 5HT4 antagonism: [3H]GR113808 binding to membranes of h5-HT4b-HEK 293 clone 9 cells
Conditions: displacement of [3H]GR113808 0.1 nM, h5-HT4b-HEK 293 membranes, 30 min at 25° C.; read-out: pIC50 (5HT4 antagonistic data) (converted)
Protocol: h5-HT4b-HEK 293 clone 9 cells were cultured in 150 mm Petri dishes and washed twice with cold PBS. The cells were then scraped from the plates and suspended in 50 mM Tris-HCl buffer, pH 7.4 and harvested by centrifugation at 23,500 rpm for 10 minutes. The pellet was resuspended in 5 mM Tris-HCl, pH 7.4 and homogenized with an Ultra Turrax homogenizer. The membranes were collected by centrifugation at 30,000 rpm for 20 min, resuspended in 50 mM Tris-HCl pH 7.4 and stored at −80° C. For the experiment, assay mixtures (0.5 ml) contained 50 μl of the tritiated ligand (5-HT4 antagonist [^3H]GR113808 0.1 nM) and 0.4 ml membrane preparation (15 μg protein/ml). 50 μl of 10% DMSO was added for total binding. 50 μl of 1 μM of (+)-trans-(1-butyl-3-hydroxy-4-piperidinyl)methyl 8-amino-7-chloro-2,3-dihydro-1,4-benzodioxin-5-carboxylate (a proprietary 5HT4 agonist of Janssen Pharmaceutica) was added for determination of non-specific binding.
The [^3H]GR113808 assay buffer was 50 mM HEPES-NaOH, pH 7.4. The mixtures were incubated for 30 min at 25° C. The incubation was terminated by filtration over a Unifilter 96 GF/B presoaked in 0.1% polyethylenimine, followed by six washing steps with 50 mM HEPES-NaOH, pH 7.4.

T1 sequence (Q13639 whole entry): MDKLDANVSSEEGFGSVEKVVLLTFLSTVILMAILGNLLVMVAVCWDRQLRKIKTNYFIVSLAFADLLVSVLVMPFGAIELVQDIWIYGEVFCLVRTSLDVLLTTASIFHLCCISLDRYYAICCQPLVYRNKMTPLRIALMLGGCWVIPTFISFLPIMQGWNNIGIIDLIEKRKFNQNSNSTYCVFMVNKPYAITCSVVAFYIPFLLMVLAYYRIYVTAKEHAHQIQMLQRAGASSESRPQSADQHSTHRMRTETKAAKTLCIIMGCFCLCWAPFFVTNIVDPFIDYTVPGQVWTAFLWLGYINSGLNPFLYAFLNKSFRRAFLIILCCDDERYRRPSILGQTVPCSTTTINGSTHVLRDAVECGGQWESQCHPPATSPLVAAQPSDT

In order of rising IC50:
1. COCCCCN1CC[C@@H](CNC(=O)c2cc(C)cc3c2OCCO3)[C@H](O)C1 [compound 248]  0.224 nM
2. Cc1cc2c(c(C(=O)NC[C@@H]3CCN(CCCc4ccc(O)cc4)C[C@H]3O)c1)OCCCO2 [compound 233]  0.355 nM
3. Cc1cc2c(c(C(=O)NC[C@@H]3CCN(CCCc4ccncc4)C[C@H]3O)c1)OCCCO2 [compound 232]  0.398 nM
4. Cc1cc2c(c(C(=O)NC[C@@H]3CCN(CCCOc4ccc(S(N)(=O)=O)cc4)C[C@H]3O)c1)OCCCO2 [compound 196]  0.427 nM
5. COCCCCN1CC[C@@H](CNC(=O)c2cc(C)cc3c2OCCCO3)[C@H](O)C1 [compound 234]  0.49 nM
6. Cc1cc2c(c(C(=O)NC[C@@H]3CCN(CCCCNc4ncccn4)C[C@H]3O)c1)OCCCO2 [compound 230]  0.501 nM
7. Cc1cc2c(c(C(=O)NC[C@@H]3CCN(CCCCOc4ccc(S(N)(=O)=O)cc4)C[C@H]3O)c1)OCCCO2 [compound 194]  0.589 nM
8. Cc1cc2c(c(C(=O)NC[C@@H]3CCN(CCCOC(=O)N4CCCC4)C[C@H]3O)c1)OCCCO2 [compound 250]  0.759 nM
9. Cc1cc2c(c(C(=O)NC[C@@H]3CCN(CC4CC4)C[C@H]3O)c1)OCCCO2 [compound 218]  0.776 nM
10. Cc1cc2c(c(C(=O)NC[C@@H]3CCN(CCCCNc4nccnc4C)C[C@H]3O)c1)OCCCO2 [compound 231]  0.776 nM
11. CCCCN1CC[C@H](CNC(=O)c2cc(C)cc3c2OCCCO3)[C@H](O)C1 [compound 242]  0.794 nM
12. Cc1cc2c(c(C(=O)NC[C@@H]3CCN(CCCOC(C)C)C[C@H]3O)c1)OCCCO2 [compound 212]  0.813 nM
13. CCCCN1CC[C@@H](CNC(=O)c2cc(C)cc3c2OCCCO3)[C@H](O)C1 [compound 164]  1 nM
14. Cc1cc2c(c(C(=O)NC[C@@H]3CCN(CCOc4ccc(S(N)(=O)=O)cc4)C[C@H]3O)c1)OCCCO2 [compound 198]  1.2 nM
15. CCCCN1CC[C@@H](CNC(=O)c2cc(C)cc3c2OCCCO3)[C@H](OC)C1 [compound 222]  1.32 nM
16. Cc1cc2c(c(C(=O)NC[C@@H]3CCN(CCCS(C)(=O)=O)C[C@H]3O)c1)OCCO2 [compound 237]  1.45 nM
17. Cc1cc2c(c(C(=O)NC[C@@H]3CCN(CCCCC(N)=O)C[C@H]3O)c1)OCCCO2 [compound 217]  1.48 nM
18. CNCCCCN1CC[C@@H](CNC(=O)c2cc(C#N)cc3c2OCCCO3)[C@H](O)C1 [compound 171]  1.62 nM
19. Cc1cc2c(c(C(=O)NC[C@@H]3CCN(CCCC(=O)N4CCCC4)C[C@H]3O)c1)OCCCO2 [compound 224]  1.78 nM
20. Cc1cc2c(c(C(=O)NC[C@@H]3CCN(CCCNS(C)(=O)=O)C[C@H]3O)c1)OCCCO2 [compound 189]  1.86 nM
21. CC(C)OCCCN1CC[C@H](CNC(=O)c2cc(C#N)cc3c2OCCCO3)[C@@H](O)C1 [compound 219]  1.86 nM
22. CCCCN1CCC(O)(CNC(=O)c2cc(C)cc3c2OCCCO3)CC1 [compound 245]  2.14 nM
23. Cc1cc2c(c(C(=O)NC[C@@H]3CCN(CCC(N)=O)C[C@H]3O)c1)OCCCO2 [compound 214]  2.34 nM
24. CC1(CCCN2CC[C@H](CNC(=O)c3cc(C#N)cc4c3OCCCO4)[C@@H](O)C2)OCCO1 [compound 220]  2.51 nM
25. Cc1cc2c(c(C(=O)NC[C@@H]3CCN(CCCCCC(N)=O)C[C@H]3O)c1)OCCCO2 [compound 213]  2.63 nM
26. Cc1cc2c(c(C(=O)NC[C@@H]3CCN(CCCS(C)(=O)=O)C[C@H]3O)c1)OCCCO2 [compound 205]  2.75 nM
27. CNCCCCN1CC[C@@H](CNC(=O)c2cc(C)cc3c2OCCCO3)[C@H](O)C1 [compound 173]  3.02 nM
28. CO[C@@H]1CN(CCCNS(C)(=O)=O)CC[C@H]1CNC(=O)c1cc(C)cc2c1OCCCO2 [compound 221]  3.09 nM
29. COCCCN1CC[C@@H](CNC(=O)c2cc(C)cc3c2OCCCO3)[C@H](OC)C1 [compound 206]  3.16 nM
30. CCCCN1CC[C@@H](CNC(=O)c2cc(OC)cc3c2OCCCO3)[C@H](O)C1 [compound 195]  3.63 nM
31. CC(=O)CCCN1CC[C@@H](CNC(=O)c2cc(C#N)cc3c2OCCCO3)[C@H](O)C1 [compound 223]  3.72 nM
32. Cc1cc2c(c(C(=O)NC[C@@H]3CCN(CCCC#N)C[C@H]3O)c1)OCCCO2 [compound 166]  4.27 nM
33. N#Cc1cc2c(c(C(=O)NC[C@@H]3CCN(CCCC(N)=O)C[C@H]3O)c1)OCCCO2 [compound 252]  4.27 nM
34. CO[C@@H]1CN(CCCC#N)CC[C@H]1CNC(=O)c1cc(C)cc2c1OCCCO2 [compound 215]  5.01 nM
35. CO[C@@H]1CN(CCCO)CC[C@H]1CNC(=O)c1cc(C)cc2c1OCCCO2 [compound 210]  5.25 nM
36. CO[C@@H]1CN(CCCC#N)CC[C@H]1CNC(=O)c1cc(C#N)cc2c1OCCCO2 [compound 208]  5.62 nM
37. CCCCN1CC[C@@H](CNC(=O)c2cc(N)c(Br)c3c2OCCCO3)[C@H](O)C1 [compound 181]  8.51 nM
38. COCCCCN1CC[C@H](CNC(=O)c2cc(C)cc3c2OCCCO3)[C@H](O)C1 [compound 243]  9.33 nM
39. CNCCCCN1CC[C@@H](CNC(=O)c2cc(OC)cc3c2OCCCO3)[C@H](O)C1 [compound 199]  12.3 nM
40. Cc1cc2c(c(C(=O)NC[C@@H]3CCN(CCC#N)C[C@H]3O)c1)OCCCO2 [compound 201]  14.5 nM
41. N#Cc1cc2c(c(C(=O)NC[C@@H]3CCN(CCC4OCCO4)C[C@H]3O)c1)OCCCO2 [compound 170]  16.2 nM
42. CCNc1cc2c(c(C(=O)NC[C@@H]3CCN(CCC4OCCO4)C[C@H]3O)c1)OCCCO2 [compound 176]  16.2 nM
43. CCCCN1CC[C@@H](CNC(=O)c2cc(C#N)cc3c2OCCCO3)[C@H](OC)C1 [compound 209]  17.8 nM
44. COCCCCN1CCC(O)(CNC(=O)c2cc(C)cc3c2OCCCO3)CC1 [compound 239]  19.1 nM
45. Cc1cc2c(c(C(=O)NC[C@H]3CCN(CCCC#N)C[C@H]3O)c1)OCCCO2 [compound 241]  19.5 nM
46. Cc1cc2c(c(C(=O)NC[C@@H]3CCN(CCCC(=O)O)C[C@H]3O)c1)OCCCO2 [compound 192]  30.9 nM
47. COCCCN1CC[C@H](CNC(=O)c2cc(C)cc3c2OCCCO3)[C@@H](O)C1 [compound 251]  30.9 nM
48. Cc1cc2c(c(C(=O)NCC3(O)CCN(CCCC(N)=O)CC3)c1)OCCCO2 [compound 253]  31.6 nM
49. CC(C)Nc1cc2c(c(C(=O)NC[C@@H]3CCN(CCC4OCCO4)C[C@H]3O)c1)OCCCO2 [compound 169]  32.4 nM
50. CO[C@@H]1CN(CCCO)CC[C@H]1CNC(=O)c1cc(C#N)cc2c1OCCCO2 [compound 207]  37.2 nM
51. COCCCN1CC[C@@H](CNC(=O)c2cc(C#N)cc3c2OCCCO3)[C@H](OC)C1 [compound 235]  37.2 nM
52. Cc1cc2c(c(C(=O)NC[C@H]3CCN(CCCC(N)=O)C[C@H]3O)c1)OCCCO2 [compound 249]  37.2 nM
53. CC(C)Nc1cc2c(c(C(=O)NC[C@@H]3CCN(CCCO)C[C@H]3O)c1)OCCCO2 [compound 180]  43.7 nM
54. CNCCCCN1CC[C@@H](CNC(=O)c2cc(CC#N)cc3c2OCCCO3)[C@H](O)C1 [compound 216]  44.7 nM
55. Cc1cc2c(c(C(=O)NCC3(O)CCN(CCCC#N)CC3)c1)OCCCO2 [compound 240]  45.7 nM
56. CO[C@@H]1CN(CCCNS(C)(=O)=O)CC[C@H]1CNC(=O)c1cc(C#N)cc2c1OCCCO2 [compound 236]  47.9 nM
57. COCCCN1CC[C@@H](CNC(=O)c2cc(NC(C)C)cc3c2OCCCO3)[C@H](O)C1 [compound 179]  63.1 nM
58. CO[C@@H]1CNCC[C@H]1CNC(=O)c1cc(C)cc2c1OCCCO2 [compound 204]  83.2 nM
59. CCNc1cc2c(c(C(=O)NC[C@@H]3CCN(CCCC#N)C[C@H]3O)c1)OCCCO2 [compound 182]  100 nM
60. CC(C)Nc1cc2c(c(C(=O)NC[C@@H]3CCN(CCCC#N)C[C@H]3O)c1)OCCCO2 [compound 172]  107 nM
61. CCCCN1CC[C@@H](CNC(=O)c2cc(NC(C)C)cc3c2OCCCO3)[C@H](O)C1 [compound 174]  117 nM
62. N#Cc1cc2c(c(C(=O)NC[C@@H]3CCNC[C@H]3O)c1)OCCCO2 [compound 175]  123 nM
63. COCc1cc2c(c(C(=O)NC[C@@H]3CCNC[C@H]3O)c1)OCCCO2 [compound 190]  269 nM
64. Nc1cc(C(=O)NC[C@@H]2CCNC[C@H]2O)c2c(c1Cl)OCCCO2 [compound 188]  832 nM
65. CO[C@@H]1CNCC[C@H]1CNC(=O)c1cc(C#N)cc2c1OCCCO2 [compound 203]  1350 nM
66. CCNc1cc2c(c(C(=O)NC[C@@H]3CCNC[C@H]3O)c1)OCCCO2 [compound 178]  1410 nM
67. CC(C)Nc1cc2c(c(C(=O)NC[C@@H]3CCNC[C@H]3O)c1)OCCCO2 [compound 167]  2400 nM

From US7638535B2, “4-(aminomethyl)-piperidine benzamides as 5HT4-antagonists” (Janssen Pharmaceutica N.V., priority 2003, dated 2009)
